Values of other authors, collected in US20220125711A1, “CANNABINOID-CONTAINING ORAL THIN FILM FORMULATIONS” (JDEM Properties, LLC, priority 2020, published 2022).

Tested on: Drosophila
Details: dietary theanine, dose-dependent (Ki and Lim)

In the case of `CCNC(=O)CC[C@H](N)C(=O)O` [L-theanine], the “daily amount of sleep” value is given as “markedly increased” and the “latency to sleep onset” value is given as “decreased”.
